Reference: patent US10112939B2, “Tied-back benzamide derivatives as potent rock inhibitors” (Bristol-Myers Squibb Company, priority 2014, dated 2018)
Where two headings read alike, the source gives them in different places.

Biological target: ROCK2 (Homo sapiens (Human), UniProt O75116)
Experiment: ROCK assay (peptide substrate phosphorylation, LABCHIP 3000 Reader)
Type: biochemical
Description: Compounds were dissolved in DMSO so that the final concentration of DMSO was <2%, and the reaction was initiated with Rho kinase variants. After incubation, the reaction was terminated by the addition of EDTA and the phosphorylated and non-phosphorylated peptides separated using a LABCHIP® 3000 Reader (Caliper Life Sciences). […] Compounds were tested in dose-response format, and the inhibition of kinase activity was calculated at each concentration of compound.

[1] = 5 μM ATP, 1.5 μM peptide substrate

Chain of ROCK2 (O75116 whole entry, species assumed): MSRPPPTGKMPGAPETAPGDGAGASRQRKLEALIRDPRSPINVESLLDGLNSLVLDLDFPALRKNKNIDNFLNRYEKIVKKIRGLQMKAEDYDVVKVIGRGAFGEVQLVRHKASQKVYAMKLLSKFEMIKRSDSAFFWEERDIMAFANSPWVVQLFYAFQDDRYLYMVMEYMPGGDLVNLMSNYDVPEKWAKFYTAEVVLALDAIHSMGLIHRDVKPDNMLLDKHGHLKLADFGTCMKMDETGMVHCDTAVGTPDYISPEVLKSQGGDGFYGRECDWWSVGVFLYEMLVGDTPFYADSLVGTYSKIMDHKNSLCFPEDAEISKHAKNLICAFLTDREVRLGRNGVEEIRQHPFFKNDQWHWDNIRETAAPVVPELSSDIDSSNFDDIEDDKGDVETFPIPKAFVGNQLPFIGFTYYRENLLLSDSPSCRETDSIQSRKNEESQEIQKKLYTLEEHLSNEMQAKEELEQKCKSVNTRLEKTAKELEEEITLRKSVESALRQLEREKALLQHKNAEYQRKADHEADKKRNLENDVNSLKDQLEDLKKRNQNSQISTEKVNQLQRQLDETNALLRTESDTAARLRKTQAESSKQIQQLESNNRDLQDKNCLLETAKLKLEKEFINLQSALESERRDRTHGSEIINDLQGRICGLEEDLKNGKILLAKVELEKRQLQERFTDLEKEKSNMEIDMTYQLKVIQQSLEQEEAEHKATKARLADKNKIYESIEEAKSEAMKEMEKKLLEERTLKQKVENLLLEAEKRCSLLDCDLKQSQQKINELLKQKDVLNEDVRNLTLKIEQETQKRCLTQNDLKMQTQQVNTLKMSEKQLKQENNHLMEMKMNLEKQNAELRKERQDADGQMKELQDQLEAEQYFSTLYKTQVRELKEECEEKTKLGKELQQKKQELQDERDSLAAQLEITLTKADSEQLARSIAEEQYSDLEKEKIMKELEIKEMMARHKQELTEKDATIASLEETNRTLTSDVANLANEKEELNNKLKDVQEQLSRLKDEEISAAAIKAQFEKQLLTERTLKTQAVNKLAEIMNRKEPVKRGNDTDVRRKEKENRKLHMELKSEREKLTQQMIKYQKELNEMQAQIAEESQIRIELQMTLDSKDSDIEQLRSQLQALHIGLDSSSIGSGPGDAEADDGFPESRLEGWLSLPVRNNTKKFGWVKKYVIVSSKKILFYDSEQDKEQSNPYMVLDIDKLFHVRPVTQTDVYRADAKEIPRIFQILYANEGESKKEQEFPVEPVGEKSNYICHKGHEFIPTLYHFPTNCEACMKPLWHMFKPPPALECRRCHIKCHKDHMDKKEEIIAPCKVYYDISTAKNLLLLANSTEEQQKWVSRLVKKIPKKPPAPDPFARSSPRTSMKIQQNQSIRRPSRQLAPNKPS

IC50 [1] [nM] | SMILES | IC50 [nM]
723 | COc1cc(-c2cn[nH]c2)ccc1C(=O)N1C[C@H](O)C[C@@H]1c1ccccc1F [Example 98, (3R,5R)-5-(2-Fluorophenyl)-1-[2-methoxy-4-(1H-pyrazol-4-yl)benzoyl] pyrrolidin-3-ol] | 
7.29 | COc1cc(C(=O)N2CC(O)C[C@@H]2c2cccc(C(=O)NCC(C)(C)O)c2)ccc1-c1cn[nH]c1 (stereo partly drawn) [Example 47, 3-[(2R)-4-hydroxy-1-[3-methoxy-4-(1H-pyrazol-4-yl)benzoyl]pyrrolidin-2-yl]-N-(2-hydroxy-2-methylpropyl)benzamide] | 
5.25 | COc1cc(C(=O)N2CC(O)C[C@@H]2c2cccc(C(=O)NCc3ccc(C(F)(F)F)cc3F)c2)ccc1-c1cn[nH]c1 (stereo partly drawn) [Example 63, N-{[2-fluoro-4-(trifluoromethyl)phenyl]methyl}-3-[(2R)-4-hydroxy-1-[3-methoxy-4-(1H-pyrazol-4-yl)benzoyl]pyrrolidin-2-yl]benzamide] | 
293 | COc1cc(C(=O)N2CC(O)C[C@@H]2c2cccc(C(=O)N3CCC3)c2)ccc1-c1cn[nH]c1 (stereo partly drawn) [Example 67, (5R)-5-[3-(azetidine-1-carbonyl)phenyl]-1-[3-methoxy-4-(1H-pyrazol-4-yl)benzoyl]pyrrolidin-3-ol] | 
62 | COc1cc(C(=O)N2CCCC2c2cccc(OCc3cc(C)on3)c2)ccc1-c1cn[nH]c1 (stereo not shown) [Example 103, 3-(3-{1-[3-Methoxy-4-(1H-pyrazol-4-yl)benzoyl]pyrrolidin-2-yl}phenoxymethyl)-5-methyl-1,2-oxazole] | 
1600 | COc1cc(-c2cn[nH]c2)ccc1C(=O)N1CCCC1c1cccc(-c2cn[nH]c2)c1 (stereo not shown) [Example 72, 4-(3-methoxy-4-{2-[3-(1H-pyrazol-4-yl)phenyl]pyrrolidine-1-carbonyl}phenyl)-1H-pyrazole] | 
461 | COc1cc(C(=O)N2CC(OC)C[C@@H]2c2cccc(C(=O)N(C)CC3CC3)c2)ccc1-c1cn[nH]c1 (stereo partly drawn) [Example 87, N-(Cyclopropylmethyl)-3-[(2R)-4-methoxy-1-[3-methoxy-4-(1H-pyrazol-4-yl)benzoyl]pyrrolidin-2-yl]-N-methylbenzamide] | 
54.9 | COc1cc(C(=O)N2CCCC2c2cccc(-c3cn[nH]c3)c2)ccc1-c1cn[nH]c1 (stereo not shown) [Example 71, 4-(2-Methoxy-4-{2-[3-(1H-pyrazol-4-yl)phenyl]pyrrolidine-1-carbonyl}phenyl)-1H-pyrazole] | 
5.32 | COc1cc(C(=O)N2CC(O)C[C@@H]2c2cccc(C(=O)NC3CC3)c2)ccc1-c1cn[nH]c1 (stereo partly drawn) [Example 48, N-cyclopropyl-3-[(2R)-4-hydroxy-1-[3-methoxy-4-(1H-pyrazol-4-yl)benzoyl]pyrrolidin-2-yl]benzamide] | 
4.52 | COc1cc(C(=O)N2C[C@@H](O)C[C@@H]2c2ccccc2F)ccc1-c1cn[nH]c1 [Example 93, (3S,5R)-5-(2-Fluorophenyl)-1-[3-methoxy-4-(1H-pyrazol-4-yl)benzoyl] pyrrolidin-3-ol] | 
24.1 | COc1cccc(C2CCCN2C(=O)c2ccc(-c3ccncc3F)c(OC)c2)c1 (stereo not shown) [Example 84, 3-fluoro-4-{2-methoxy-4-[2-(3-methoxyphenyl)pyrrolidine-1-carbonyl]phenyl}pyridine] | 
204 | COc1cc(C(=O)N2CC(O)C[C@@H]2c2cccc(C(=O)N3CC(F)C3)c2)ccc1-c1cn[nH]c1 (stereo partly drawn) [Example 64, (5R)-5-[3-(3-fluoroazetidine-1-carbonyl)phenyl]-1-[3-methoxy-4-(1H-pyrazol-4-yl)benzoyl]pyrrolidin-3-ol] | 
902 | COc1cc(C(=O)N2CC(O)C[C@@H]2c2ccc3c(I)n[nH]c3c2)ccc1-c1cn[nH]c1 (stereo partly drawn) [Example 109, (5R)-5-(3-Iodo-1H-indazol-6-yl)-1-[3-methoxy-4-(1H-pyrazol-4-yl)benzoyl]pyrrolidin-3-ol] | 
887 | COc1cc(C(=O)N2CCCC2c2cccc(-c3ccn[nH]3)c2)ccc1-c1cn[nH]c1 (stereo not shown) [Example 77, 4-(2-methoxy-4-{2-[3-(1H-pyrazol-5-yl)phenyl]pyrrolidine-1-carbonyl}phenyl)-1H-pyrazole] | 
91.4 | COc1cc(C(=O)N2CC(O)C[C@@H]2c2cccc(C(=O)N3CC(F)(F)C3)c2)ccc1-c1cn[nH]c1 (stereo partly drawn) [Example 65, (5R)-5-[3-(3,3-difluoroazetidine-1-carbonyl)phenyl]-1-[3-methoxy-4-(1H-pyrazol-4-yl)benzoyl]pyrrolidin-3-ol] | 
1390 | COc1cc(C(=O)N2CCCC2c2cccc(OC3CCN(C)CC3)c2)ccc1-c1cn[nH]c1 (stereo not shown) [Example 104, 4-(3-{1-[3-Methoxy-4-(1H-pyrazol-4-yl)benzoyl]pyrrolidin-2-yl}phenoxy)-1-methylpiperidine] | 
4.08 | COc1cc(C(=O)N2CC(O)C[C@@H]2c2cccc(C(=O)NCC(F)F)c2)ccc1-c1cn[nH]c1 (stereo partly drawn) [Example 60, N-(2,2-difluoroethyl)-3-[(2R)-4-hydroxy-1-[3-methoxy-4-(1H-pyrazol-4-yl)benzoyl]pyrrolidin-2-yl]benzamide] | 
1.65 | COc1cc(C(=O)N2C[C@H](N)C[C@@H]2c2ccccc2F)ccc1-c1cn[nH]c1 [Example 107, (3R,5R)-5-(2-Fluorophenyl)-1-[3-methoxy-4-(1H-pyrazol-4-yl)benzoyl] pyrrolidin-3-amine] | 
0.87 | COc1cc(C(=O)N2C[C@@H](N)C[C@@H]2c2ccccc2F)ccc1-c1cn[nH]c1 [Example 106, (3S,5R)-5-(2-Fluorophenyl)-1-[3-methoxy-4-(1H-pyrazol-4-yl)benzoyl] pyrrolidin-3-amine] | 
784 | COc1cc(C(=O)N2CC(OC(C)=O)C[C@@H]2c2cccc(S(C)(=O)=O)c2)ccc1-c1cn[nH]c1 (stereo partly drawn) [Example 89, (5R)-5-(3-Methanesulfonylphenyl)-1-[3-methoxy-4-(1H-pyrazol-4-yl)benzoyl]pyrrolidin-3-yl acetate] | 

The remaining lines, values behind:

SMILES | IC50 [1] [nM] | IC50 [nM]
COc1cc(C(=O)N2CCCC2c2ccc(C(F)(F)F)cc2)ccc1-c1cn[nH]c1 (stereo not shown) [Example 22, 4-(2-methoxy-4-{2-[4-(trifluoromethyl)phenyl]pyrrolidine-1-carbonyl}phenyl)-1H-pyrazole] | 125 | 
COc1cc(C(=O)N2CCCCC2c2ccccc2F)ccc1-c1cn[nH]c1 (stereo not shown) [Example 8, 2-(2-fluorophenyl)-1-[3-methoxy-4-(1H-pyrazol-4-yl)benzoyl] piperidine] | 85.8 | 
COc1cccc(C2CCCN2C(=O)c2ccc(-c3cn[nH]c3)c(OC)c2)c1 (stereo not shown) [Example 12, 4-{2-methoxy-4-[2-(3-methoxyphenyl)pyrrolidine-1-carbonyl]phenyl}-1H-pyrazole] | 12.6 | 
COc1cc(C(=O)N2CCCC2c2ccc(Cl)cc2)ccc1-c1cn[nH]c1 (stereo not shown) [Example 10, 4-{4-[2-(4-chlorophenyl)pyrrolidine-1-carbonyl]-2-methoxyphenyl}-1H-pyrazole] | 114 | 
COc1cc(C(=O)N2CCCC2c2ccccc2F)ccc1-c1cn[nH]c1 (stereo not shown) [Example 20, 4-{4-[2-(2-fluorophenyl)pyrrolidine-1-carbonyl]-2-methoxyphenyl}-1H-pyrazole] | 14.7 | 
COc1cc(C(=O)N2CCC(c3ccccc3)C2)ccc1-c1cn[nH]c1 (stereo not shown) [Example 2, 4-[2-methoxy-4-(3-phenyl-pyrrolidine-1-carbonyl)phenyl]-1H-pyrazole] | 355 | 
COc1cc(C(=O)N2CCC[C@@H]2c2cccc(C(=O)N(C)C)c2)ccc1-c1cn[nH]c1 [Example 40, 3-[(2R)-1-[3-methoxy-4-(1H-pyrazol-4-yl)benzoyl]pyrrolidin-2-yl]-N,N-dimethylbenzamide] | 725 | 
COc1cc(C(=O)N2CCCC2c2ccc(C)cc2)ccc1-c1cn[nH]c1 (stereo not shown) [Example 23, 4-{2-methoxy-4-[2-(4-methyl-phenyl)pyrrolidine-1-carbonyl]phenyl}-1H-pyrazole] | 215 | 
COc1cc(C(=O)N2CCCC2c2ccccc2)ccc1-c1cn[nH]c1 (stereo not shown) [Example 26, 4-[2-methoxy-4-(2-phenyl-pyrrolidine-1-carbonyl)phenyl]-1H-pyrazole] | 50.5 | 
COc1cccc(C2CCCCN2C(=O)c2ccc(-c3cn[nH]c3)c(OC)c2)c1 (stereo not shown) [Example 9, 1-[3-methoxy-4-(1H-pyrazol-4-yl)benzoyl]-2-(3-methoxy-phenyl) piperidine] | 673 | 
COc1cc(C(=O)N2CCCC2c2ccccc2OC)ccc1-c1cn[nH]c1 (stereo not shown) [Example 6, 4-{2-methoxy-4-[2-(2-methoxyphenyl)pyrrolidine-1-carbonyl]phenyl}-1H-pyrazole] | 511 | 
COc1cc(C(=O)N2CCCC2c2ccc3ccccc3c2)ccc1-c1cn[nH]c1 (stereo not shown) [Example 29, 4-{2-methoxy-4-[2-(naphthalen-2-yl)pyrrolidine-1-carbonyl]phenyl}-1H-pyrazole] | 68.3 | 
COc1cc(C(=O)N2CCC[C@@H]2C(=O)Nc2ccccc2)ccc1-c1cn[nH]c1 [Example 110, (2R)-1-[3-Methoxy-4-(1H-pyrazol-4-yl)benzoyl]-N-phenylpyrrolidine-2-carboxamide] | 463 | 
CCNC(=O)c1cccc(C2CCCN2C(=O)c2ccc(-c3cn[nH]c3)c(OC)c2)c1 (stereo not shown) [Example 35, N-Ethyl-3-(1-(3-methoxy-4-(1H-pyrazol-4-yl)benzoyl)pyrrolidin-2-yl)benzamide] | 4.89 | 
CNC(=O)c1cccc([C@H]2CC(O)CN2C(=O)c2ccc(-c3cn[nH]c3)c(OC)c2)c1 (stereo partly drawn) [Example 46, 3-[(2R)-4-hydroxy-1-[3-methoxy-4-(1H-pyrazol-4-yl)benzoyl]pyrrolidin-2-yl]-N-methylbenzamide] | 18.2 | 
N#Cc1cc(C(=O)N2C[C@H](O)C[C@@H]2c2ccccc2F)ccc1-c1cn[nH]c1 [Example 97, 5-[(2R)-2-(2-Fluorophenyl)-4-hydroxypyrrolidine-1-carbonyl]-2-(1H-pyrazol-4-yl)benzonitrile] | 721 | 
COc1cc(C(=O)N2CCC[C@@H]2C(=O)N2CCc3ccccc32)ccc1-c1cn[nH]c1 [Example 111, 1-[(2R)-1-[3-Methoxy-4-(1H-pyrazol-4-yl)benzoyl]pyrrolidine-2-carbonyl]-2,3-dihydro-1H-indole] |  | 504
